Experimental data reported in patent US9556201B2, “Bicyclic pyridines and analogs as sirtuin modulators” (GLAXOSMITHKLINE LLC, priority 2009, dated 2017).

Target: T1, SIRT1 (Homo sapiens, UniProt Q96EB6)
T1 sequence (Q96EB6 1-747): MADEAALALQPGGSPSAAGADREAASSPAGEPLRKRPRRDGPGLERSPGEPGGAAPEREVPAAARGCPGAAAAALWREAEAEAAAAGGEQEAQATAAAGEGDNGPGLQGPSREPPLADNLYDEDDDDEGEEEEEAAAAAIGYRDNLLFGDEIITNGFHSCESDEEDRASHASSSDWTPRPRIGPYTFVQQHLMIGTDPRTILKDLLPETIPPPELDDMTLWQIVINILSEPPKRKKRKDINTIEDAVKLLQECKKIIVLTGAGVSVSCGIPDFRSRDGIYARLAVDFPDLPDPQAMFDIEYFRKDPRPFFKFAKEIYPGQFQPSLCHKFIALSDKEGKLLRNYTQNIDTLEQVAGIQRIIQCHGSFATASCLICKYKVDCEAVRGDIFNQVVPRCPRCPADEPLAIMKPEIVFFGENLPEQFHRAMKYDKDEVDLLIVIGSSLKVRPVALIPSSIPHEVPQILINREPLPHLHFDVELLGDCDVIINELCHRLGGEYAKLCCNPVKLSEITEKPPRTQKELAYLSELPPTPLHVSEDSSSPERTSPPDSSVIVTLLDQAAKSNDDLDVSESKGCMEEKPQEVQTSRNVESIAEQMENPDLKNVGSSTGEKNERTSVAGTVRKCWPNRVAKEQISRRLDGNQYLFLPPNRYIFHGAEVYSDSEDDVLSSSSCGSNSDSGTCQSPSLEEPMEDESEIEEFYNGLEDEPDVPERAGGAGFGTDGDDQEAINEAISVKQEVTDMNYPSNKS
Test: Mass spectrometry based assay to identify modulators of SIRT1 activity (deacetylation of p53-based acetylated peptide substrate)
Assay type: biochemical
Conditions: SIRT1 activation; for Emax: 25 min, read-out: % FOLD ACT. (percent maximum fold activation)
From the text: A mass spectrometry based assay was used to identify modulators of SIRT1 activity. The mass spectrometry based assay utilizes a peptide having 20 amino acid residues as follows: Ac-EE-K(biotin)-GQSTSSHSK(Ac)NleSTEG-K(5TMR)-EE-NH2 (SEQ ID NO: 1) wherein K(Ac) is an acetylated lysine residue and Nle is a norleucine. The peptide is labeled with the fluorophore 5TMR (excitation 540 nm/emission 580 nm) at the C-terminus. The sequence of the peptide substrate is based on p53 with several modifications. In addition, the methionine residue naturally present in the sequence was replaced with the norleucine because the methionine may be susceptible to oxidation during synthesis and purification.
The mass spectrometry assay is conducted as follows: […] peptide substrate and 120 μM βNAD^+ is incubated with 10 nM SIRT1 for 25 minutes at 25° C. in a reaction buffer (50 mM Tris-acetate pH 8, 137 mM NaCl, 2.7 mM KCl, 1 mM MgCl2, 5 mM DTT, 0.05% BSA). Test compounds may be added to the reaction as described above. The SirT1 gene is cloned into a T7-promoter containing vector and transformed into BL21(DE3). After the 25 minute incubation with SIRT1, 10 μL of 10% formic acid is added to stop the reaction. Reactions are sealed and frozen for later mass spec analysis. Determination of the mass of the substrate peptide allows for precise determination of the degree of acetylation (i.e. starting material) as compared to deacetylated peptide (product).
A control for inhibition of sirtuin activity is conducted by adding 1 μL of 500 mM nicotinamide as a negative control at the start of the reaction (e.g., permits determination of maximum sirtuin inhibition). A control for activation of sirtuin activity is conducted using 10 nM of sirtuin protein, with 1 μL of DMSO in place of compound, to determine the amount of deacetylation of the substrate at a given timepoint within the linear range of the assay. This timepoint is the same as that used for test compounds and, within the linear range, the endpoint represents a change in velocity.
For the above assay, SIRT1 protein was expressed and purified as follows. The SirT1 gene was cloned into a T7-promoter containing vector and transformed into BL21(DE3). The protein was expressed by induction with 1 mM IPTG as an N-terminal His-tag fusion protein at 18° C. overnight and harvested at 30,000×g. Cells were lysed with lysozyme in lysis buffer (50 mM Tris-HCl, 2 mM Tris[2-carboxyethyl]phosphine (TCEP), 10 μM ZnCl2, 200 mM NaCl) and further treated with sonication for 10 min for complete lysis. The protein was purified over a Ni-NTA column (Amersham) and fractions containing pure protein were pooled, concentrated and run over a sizing column (Sephadex S200 26/60 global). The peak containing soluble protein was collected and run on an Ion-exchange column (MonoQ). Gradient elution (200 mM-500 mM NaCl) yielded pure protein. This protein was concentrated and dialyzed against dialysis buffer (20 mM Tris-HCl, 2 mM TCEP) overnight. The protein was aliquoted and frozen at −80° C. until further use.

Structure (SMILES)	Emax	EC1.5
O=C(Nc1nccs1)N1CCOc2ccc(-c3cccc(C(F)(F)F)c3)nc21 [Compound 500, N-(thiazol-2-yl)-6-(3-(trifluoromethyl)phenyl)-2H-pyrido[3,2-b][1,4]oxazine-4(3H)-carboxamide]	> 200%	A (EC1.5<1.0 μM)
Cc1cnc(CNC(=O)N2CCOc3ccc(-c4cccc(C(F)(F)F)c4)nc32)cn1 [Compound 504]	≤ 200%	C (EC1.5>25 μM)
O=C(Nc1ncc(CN2CCCC2)s1)N1CCOc2ccc(-c3cccc(C(F)(F)F)c3)nc21 [Compound 505, N-(5-(pyrrolidin-1-ylmethyl)thiazol-2-yl)-6-(3-(trifluoromethyl)phenyl)-2H-pyrido[3,2-b][1,4]oxazine-4(3H)-carboxamide]	≤ 200%	C (EC1.5>25 μM)
O=C(Nc1ccc(CN2CCOCC2)nc1)N1CCOc2ccc(-c3cccc(C(F)(F)F)c3)nc21 [Compound 507, N-(6-(morpholinomethyl)pyridin-3-yl)-6-(3-(trifluoromethyl)phenyl)-2H-pyrido[3,2-b][1,4]oxazine-4(3H)-carboxamide]	> 200%	A (EC1.5<1.0 μM)
Cc1noc(NC(=O)N2CCOc3ccc(-c4cccc(C(F)(F)F)c4)nc32)c1C [Compound 509]	> 200%	B (EC1.5 1-25 μM)
O=C(Nc1cccc(N2CCC2)n1)N1CCOc2ccc(-c3cccc(C(F)(F)F)c3)nc21 [Compound 512, N-(6-(azetidin-1-yl)pyridin-2-yl)-6-(3-(trifluoromethyl)phenyl)-2H-pyrido[3,2-b][1,4]oxazine-4(3H)-carboxamide]	> 200%	B (EC1.5 1-25 μM)
O=C(Nc1ccncn1)N1CCOc2ccc(-c3cccc(F)c3)nc21 [Compound 514]	> 200%	A (EC1.5<1.0 μM)
COc1cccc(-c2ccc3c(n2)N(C(=O)Nc2ccncn2)CCO3)c1 [Compound 515]	> 200%	B (EC1.5 1-25 μM)
O=C(Nc1ccncn1)N1CCOc2ccc(-c3cccnc3)nc21 [Compound 516]	≤ 200%	C (EC1.5>25 μM)
Cc1cccc(-c2ccc3c(n2)N(C(=O)Nc2ccncn2)CCO3)c1 [Compound 517]	> 200%	A (EC1.5<1.0 μM)
O=C(c1ccnc(OCC(O)CO)c1)N1CCOc2ccc(-c3cccc(C(F)(F)F)c3)nc21 (stereo not drawn) [Compound 518, (2-(2,3-dihydroxypropoxy)pyridin-4-yl)(6-(3-(trifluoromethyl)phenyl)-2H-pyrido[3,2-b][1,4]oxazin-4(3H)-yl)methanone]	≤ 200%	B (EC1.5 1-25 μM)
CN1C(=O)CN(C(=O)Nc2nccs2)c2nc(-c3cccc(C(F)(F)F)c3)ccc21 [Compound 520, 1-methyl-2-oxo-N-(thiazol-2-yl)-6-(3-(trifluoromethyl)phenyl)-2,3-dihydropyrido[2,3-b]pyrazine-4(1H)-carboxamide]	≤ 200%	B (EC1.5 1-25 μM)
Cc1csc(NC(=O)N2CC(=O)N(C)c3ccc(-c4cccc(C(F)(F)F)c4)nc32)n1 [Compound 521]	≤ 200%	B (EC1.5 1-25 μM)
CN1C(=O)CN(C(=O)NC2CCOC2=O)c2nc(-c3cccc(C(F)(F)F)c3)ccc21 (stereo not drawn) [Compound 522]	≤ 200%	C (EC1.5>25 μM)
CN1C(=O)CN(C(=O)Nc2ncco2)c2nc(-c3cccc(C(F)(F)F)c3)ccc21 [Compound 523]	≤ 200%	C (EC1.5>25 μM)
CN1C(=O)CN(C(=O)Nc2ncn[nH]2)c2nc(-c3cccc(C(F)(F)F)c3)ccc21 [Compound 524]	≤ 200%	C (EC1.5>25 μM)
CN1C(=O)CN(C(=O)Nc2ccncc2)c2nc(-c3cccc(C(F)(F)F)c3)ccc21 [Compound 525]	> 200%	B (EC1.5 1-25 μM)
CN1C(=O)CN(C(=O)Nc2ccncn2)c2nc(-c3cccc(C(F)(F)F)c3)ccc21 [Compound 526]	> 200%	B (EC1.5 1-25 μM)
